{"source": "patent US20230286970A1", "about": "“NOVEL OXADIAZOLE-BASED SELECTIVE HDAC6 INHIBITORS” (ITALFARMACO S.P.A., priority 2020, published 2023)", "key": {"recombinant human HDAC1": {"target": "recombinant human HDAC1 (Homo sapiens (Human), UniProt Q13547)", "sequence (Q13547 whole entry)": "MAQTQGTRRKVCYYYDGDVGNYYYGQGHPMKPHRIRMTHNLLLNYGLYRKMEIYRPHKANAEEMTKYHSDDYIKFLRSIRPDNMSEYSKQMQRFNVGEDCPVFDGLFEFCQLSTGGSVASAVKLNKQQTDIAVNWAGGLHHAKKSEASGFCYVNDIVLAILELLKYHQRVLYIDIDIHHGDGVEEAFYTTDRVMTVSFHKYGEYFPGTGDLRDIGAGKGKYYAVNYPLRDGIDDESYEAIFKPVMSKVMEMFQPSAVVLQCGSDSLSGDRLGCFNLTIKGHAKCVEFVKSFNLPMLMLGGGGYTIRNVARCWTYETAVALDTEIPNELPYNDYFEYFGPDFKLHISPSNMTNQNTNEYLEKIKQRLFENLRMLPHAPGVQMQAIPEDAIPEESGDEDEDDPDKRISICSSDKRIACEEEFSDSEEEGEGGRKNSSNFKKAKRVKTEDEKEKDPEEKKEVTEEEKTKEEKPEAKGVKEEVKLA", "assay": "Enzymatic screening, HDAC1 inhibition (fluorogenic FdL_G substrate)", "assay_type": "biochemical", "procedure": "(§1) For each test compound, 100× concentrated DMSO solutions at 8 doses were prepared and then diluted in assay buffer (25 mM Tris-HCl, pH 8, 130 mM NaCl, 0.05% Tween-20, 10% Glycerol) to obtain 5× concentrated solutions in relation to the final concentrations (typical final concentration range—6.4-200000 nM or 0.18-50000 nM, final DMSO content—1%). Then 10 μL solution of each test compound concentration were placed on a 96-well plate in triplicate and 15 μL of 3.33× concentrated enzyme solution in the assay buffer containing 3.33× concentrated BSA (final BSA concentration—2 mg/mL for HDAC4, HDAC5 and HDAC9 or 1 mg/mL for other isoforms) and in the case of HDAC6-3.33× concentrated TCEP (final TCEP concentration—200 μM) were added to each well. After a period of preincubation (incubation times and temperatures vary for different isoforms and are shown in table 1) 25 μL of solution containing the substrate were added. As substrate, FLUOR DE LYS® deacetylase substrate (Enzo Life Sciences, cat: BML-KI104, FdL), FLUOR DE LYS®-Green substrate (Enzo Life Sciences, cat: BML-KI572, FdL_G) or Boc-Lys(Tfa)-AMC (Bachem, cat: 4060676.005, Tfal)—2× concentrated solution in assay buffer were used. Following a reaction period (reaction times and temperatures vary for different isoforms and are reported in Table 1), 50 μL of the development solution consisting of concentrate FLUOR DE LYS® developer I (Enzo Life Sciences, ca: BML-KI105), diluted 200 times in buffer (50 mM Tris-HCl, pH 8, 137 mM NaCl, 2.7 mM KCl, 1 mM MgCl2) plus 2 μM TSA was added and, after 25 minutes at room temperature in the dark, using the Victor 1420 Multilabel Counter Perkin Elmer Wallac instrument, the fluorescence reading was carried out."}, "recombinant human HDAC6": {"target": "recombinant human HDAC6 (Homo sapiens (Human), UniProt Q9UBN7)", "sequence (Q9UBN7 whole entry)": "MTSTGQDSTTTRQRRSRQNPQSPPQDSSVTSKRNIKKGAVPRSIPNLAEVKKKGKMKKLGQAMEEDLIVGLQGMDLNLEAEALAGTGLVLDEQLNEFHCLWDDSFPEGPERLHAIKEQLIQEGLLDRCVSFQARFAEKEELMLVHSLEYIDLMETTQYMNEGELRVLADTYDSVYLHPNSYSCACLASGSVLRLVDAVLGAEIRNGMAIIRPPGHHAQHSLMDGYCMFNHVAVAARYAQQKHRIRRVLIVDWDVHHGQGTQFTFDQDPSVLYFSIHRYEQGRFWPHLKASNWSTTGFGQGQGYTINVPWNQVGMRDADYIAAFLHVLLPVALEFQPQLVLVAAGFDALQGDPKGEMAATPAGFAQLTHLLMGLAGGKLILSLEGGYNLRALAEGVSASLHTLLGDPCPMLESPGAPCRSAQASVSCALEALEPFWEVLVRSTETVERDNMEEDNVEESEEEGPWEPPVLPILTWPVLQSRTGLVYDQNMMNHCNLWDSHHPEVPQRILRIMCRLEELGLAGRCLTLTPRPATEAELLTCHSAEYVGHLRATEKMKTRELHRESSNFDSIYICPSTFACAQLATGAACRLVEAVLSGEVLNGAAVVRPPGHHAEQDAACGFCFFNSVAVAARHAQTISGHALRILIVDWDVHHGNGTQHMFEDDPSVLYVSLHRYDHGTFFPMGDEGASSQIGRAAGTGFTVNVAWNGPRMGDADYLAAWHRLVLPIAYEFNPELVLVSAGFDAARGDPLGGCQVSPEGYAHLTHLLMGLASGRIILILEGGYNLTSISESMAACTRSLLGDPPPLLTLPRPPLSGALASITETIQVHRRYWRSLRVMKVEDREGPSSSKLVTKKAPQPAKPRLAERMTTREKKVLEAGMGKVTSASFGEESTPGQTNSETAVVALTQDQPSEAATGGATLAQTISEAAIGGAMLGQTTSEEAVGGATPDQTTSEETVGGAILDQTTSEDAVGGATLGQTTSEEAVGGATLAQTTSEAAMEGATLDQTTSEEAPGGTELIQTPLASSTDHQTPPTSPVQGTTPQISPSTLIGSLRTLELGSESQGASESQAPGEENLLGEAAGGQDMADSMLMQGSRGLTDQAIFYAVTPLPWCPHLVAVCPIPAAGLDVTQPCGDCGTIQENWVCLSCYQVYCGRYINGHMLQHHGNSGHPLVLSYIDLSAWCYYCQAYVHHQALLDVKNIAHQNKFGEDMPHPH", "assay": "Enzymatic screening, HDAC6 inhibition (fluorogenic FdL_G substrate)", "assay_type": "biochemical", "procedure": "as §1"}}, "data": [{"smiles": "FC(F)c1nnc(-c2ccc(Cn3nnc(-c4ccc(CN5CCCCC5)cc4)n3)cc2)o1", "note": "[compound 87, 2-(difluoromethyl)-5-(4-((5-(4-(piperidin-1-ylmethyl)phenyl)-2H-tetrazol-2-yl)methyl)phenyl)-1,3,4-oxadiazole]", "values": [{"measurement": "IC50", "setting": "recombinant human HDAC1", "value": "> 200000", "unit": "nM"}, {"measurement": "IC50", "setting": "recombinant human HDAC6", "value": 34, "unit": "nM"}]}, {"smiles": "O=C1NCc2ccc(-c3nnn(Cc4ncc(-c5nnc(C(F)F)o5)cn4)n3)cc21", "note": "[compound 107, 6-(2-((5-(5-(difluoromethyl)-1,3,4-oxadiazol-2-yl)pyrimidin-2-yl)methyl)-2H-tetrazol-5-yl)isoindolin-1-one]", "values": [{"measurement": "IC50", "setting": "recombinant human HDAC1", "value": "> 200000", "unit": "nM"}, {"measurement": "IC50", "setting": "recombinant human HDAC6", "value": 41, "unit": "nM"}]}, {"smiles": "C[C@H]1CN(c2ccc(-c3nnn(Cc4ccc(-c5nnc(C(F)F)o5)cc4)n3)cn2)CCN1", "note": "[compound 182, (S)-2-(difluoromethyl)-5-(4-((5-(6-(3-methylpiperazin-1-yl)pyridin-3-yl)-2H-tetrazol-2-yl)methyl)phenyl)-1,3,4-oxadiazole]", "values": [{"measurement": "IC50", "setting": "recombinant human HDAC1", "value": "> 200000", "unit": "nM"}]}, {"smiles": "FC(F)c1nnc(-c2ccc(Cn3nnc(C4(c5ccccn5)CC4)n3)cc2)o1", "note": "[compound 147, 2-(difluoromethyl)-5-(4-((5-(1-(pyridin-2-yl)cyclopropyl)-2H-tetrazol-2-yl)methyl)phenyl)-1,3,4-oxadiazole]", "values": [{"measurement": "IC50", "setting": "recombinant human HDAC1", "value": "> 200000", "unit": "nM"}, {"measurement": "IC50", "setting": "recombinant human HDAC6", "value": 63, "unit": "nM"}]}, {"smiles": "[2H]C([2H])(c1ccc(-c2nnc(C(F)F)o2)cc1)n1cc(-c2cccc(NC(=O)N3CCOCC3)c2)nn1", "note": "[compound 352, N-[3-[1-[dideuterio-[4-[5-(difluoromethyl)-1,3,4-oxadiazol-2-yl]phenyl]methyl]triazol-4-yl]phenyl]morpholine-4-carboxamide]", "values": [{"measurement": "IC50", "setting": "recombinant human HDAC1", "value": "> 1e+06", "unit": "nM"}, {"measurement": "IC50", "setting": "recombinant human HDAC6", "value": 60, "unit": "nM"}]}, {"smiles": "[2H]C([2H])(c1cc(F)c(-c2nnc(C(F)F)o2)cc1F)n1cc(-c2ccc(N)nc2)nn1", "note": "[compound 381, 5-[1-[dideuterio-[4-[5-(difluoromethyl)-1,3,4-oxadiazol-2-yl]-2,5-difluorophenyl]methyl]triazol-4-yl]pyridin-2-amine]", "values": [{"measurement": "IC50", "setting": "recombinant human HDAC1", "value": "> 1e+06", "unit": "nM"}, {"measurement": "IC50", "setting": "recombinant human HDAC6", "value": 28, "unit": "nM"}]}, {"smiles": "O=C1Nc2ccc(-c3nnn(Cc4ccc(-c5nnc(C(F)F)o5)cc4)n3)cc2NC12CCCC2", "note": "[compound 110, 7′-(2-(4-(5-(difluoromethyl)-1,3,4-oxadiazol-2-yl)benzyl)-2H-tetrazol-5-yl)-1′,4′-dihydro-3′H-spiro[cyclopentane-1,2′-quinoxalin]-3′-one]", "values": [{"measurement": "IC50", "setting": "recombinant human HDAC1", "value": "> 200000", "unit": "nM"}, {"measurement": "IC50", "setting": "recombinant human HDAC6", "value": 42, "unit": "nM"}]}, {"smiles": "O=C1NCc2ccc(-c3nnnn3Cc3ncc(-c4nnc(C(F)F)o4)cn3)cc21", "note": "[compound 298, 6-(1-((5-(5-(difluoromethyl)-1,3,4-oxadiazol-2-yl)pyrimidin-2-yl)methyl)-1H-tetrazol-5-yl)isoindolin-1-one]", "values": [{"measurement": "IC50", "setting": "recombinant human HDAC1", "value": "> 200000", "unit": "nM"}, {"measurement": "IC50", "setting": "recombinant human HDAC6", "value": 151, "unit": "nM"}]}, {"smiles": "O=C(Nc1cccc(-c2cn(Cc3ccc(-c4nnc(C(F)F)o4)cc3F)nn2)c1)N1CCOCC1", "note": "[compound 47, N-(3-(1-(4-(5-(difluoromethyl)-1,3,4-oxadiazol-2-yl)-2-fluorobenzyl)-1H-1,2,3-triazol-4-yl)phenyl)morpholine-4-carboxamide]", "values": [{"measurement": "IC50", "setting": "recombinant human HDAC1", "value": "> 30000", "unit": "nM"}, {"measurement": "IC50", "setting": "recombinant human HDAC6", "value": 21, "unit": "nM"}]}, {"smiles": "Nc1nc2cc(-c3cn(Cc4ccc(-c5nnc(C(F)F)o5)cn4)cn3)ccc2o1", "note": "[compound 308, 5-(1-((5-(5-(difluoromethyl)-1,3,4-oxadiazol-2-yl)pyridin-2-yl)methyl)-1H-imidazol-4-yl)benzo[d]oxazol-2-amine]", "values": [{"measurement": "IC50", "setting": "recombinant human HDAC1", "value": "> 1e+06", "unit": "nM"}, {"measurement": "IC50", "setting": "recombinant human HDAC6", "value": 15, "unit": "nM"}]}, {"smiles": "O=[N+]([O-])c1ccccc1-c1nnn(Cc2ccc(-c3nnc(C(F)F)o3)cc2)n1", "note": "[compound 150, 2-(difluoromethyl)-5-(4-((5-(2-nitrophenyl)-2H-tetrazol-2-yl)methyl)phenyl)-1,3,4-oxadiazole]", "values": [{"measurement": "IC50", "setting": "recombinant human HDAC1", "value": "> 200000", "unit": "nM"}, {"measurement": "IC50", "setting": "recombinant human HDAC6", "value": 64, "unit": "nM"}]}, {"smiles": "Nc1cnc2ccc(-c3nnn(Cc4cc(F)c(-c5nnc(C(F)F)o5)cc4F)n3)cc2c1", "note": "[compound 398, 6-[2-[[4-[5-(difluoromethyl)-1,3,4-oxadiazol-2-yl]-2,5-difluorophenyl]methyl]tetrazol-5-yl]quinolin-3-amine]", "values": [{"measurement": "IC50", "setting": "recombinant human HDAC6", "value": 49, "unit": "nM"}]}, {"smiles": "Nc1ncnc2cc(-c3cn(Cc4cc(F)c(-c5nnc(C(F)F)o5)cc4F)nn3)ccc12", "note": "[compound 433, 7-(1-(4-(5-(difluoromethyl)-1,3,4-oxadiazol-2-yl)-2,5-difluorobenzyl)-1H-1,2,3-triazol-4-yl)quinazolin-4-amine]", "values": [{"measurement": "IC50", "setting": "recombinant human HDAC6", "value": 23, "unit": "nM"}]}, {"smiles": "Fc1cc(-c2nnc(C(F)F)o2)c(F)cc1Cn1nnc(-c2ccc3cnccc3c2)n1", "note": "[compound 428, 2-(2,5-difluoro-4-((5-(isoquinolin-6-yl)-2H-tetrazol-2-yl)methyl)phenyl)-5-(difluoromethyl)-1,3,4-oxadiazole]", "values": [{"measurement": "IC50", "setting": "recombinant human HDAC6", "value": 99, "unit": "nM"}]}, {"smiles": "Nc1ncnc2cc(-c3cn(Cc4ccc(-c5nnc(C(F)F)o5)cc4Cl)nn3)ccc12", "note": "[compound 434, 7-(1-(2-chloro-4-(5-(difluoromethyl)-1,3,4-oxadiazol-2-yl)benzyl)-1H-1,2,3-triazol-4-yl)quinazolin-4-amine]", "values": [{"measurement": "IC50", "setting": "recombinant human HDAC6", "value": 59, "unit": "nM"}]}, {"smiles": "Nc1ncnc2cc(-c3cn(Cc4ccc(-c5nnc(C(F)F)o5)c(F)c4)nn3)ccc12", "note": "[compound 418, 7-(1-(4-(5-(difluoromethyl)-1,3,4-oxadiazol-2-yl)-3-fluorobenzyl)-1H-1,2,3-triazol-4-yl)quinazolin-4-amine]", "values": [{"measurement": "IC50", "setting": "recombinant human HDAC6", "value": 27, "unit": "nM"}]}, {"smiles": "Nc1ncc2cc(-c3nnn(Cc4ccc(-c5nnc(C(F)F)o5)cc4Cl)n3)ccc2n1", "note": "[compound 425, 6-(2-(2-chloro-4-(5-(difluoromethyl)-1,3,4-oxadiazol-2-yl)benzyl)-2H-tetrazol-5-yl)quinazolin-2-amine]", "values": [{"measurement": "IC50", "setting": "recombinant human HDAC6", "value": 545, "unit": "nM"}]}, {"smiles": "CC(c1ccc(-c2nnc(C(F)F)o2)cc1)n1cc(-c2ccc(N)nc2)nn1", "note": "(centres unmarked) [Compd. 158, 5-(1-(1-(4-(5-(difluoromethyl)-1,3,4-oxadiazol-2-yl)phenyl)ethyl)-1H-1,2,3-triazol-4-yl)pyridin-2-amine]", "values": [{"measurement": "IC50", "setting": "recombinant human HDAC6", "value": 72, "unit": "nM"}]}, {"smiles": "FC(F)c1nnc(-c2ccc(Cn3nnc(-c4ccc(Cl)cc4Cl)n3)cc2)o1", "note": "[compound 263, 2-(4-((5-(2,4-dichlorophenyl)-2H-tetrazol-2-yl)methyl)phenyl)-5-(difluoromethyl)-1,3,4-oxadiazole]", "values": [{"measurement": "IC50", "setting": "recombinant human HDAC6", "value": 489, "unit": "nM"}]}, {"smiles": "Fc1cc(-c2nnc(C(F)F)o2)ccc1Cn1nnc(-c2nccc3ccccc23)n1", "note": "[compound 431, 2-(difluoromethyl)-5-(3-fluoro-4-((5-(isoquinolin-1-yl)-2H-tetrazol-2-yl)methyl)phenyl)-1,3,4-oxadiazole]", "values": [{"measurement": "IC50", "setting": "recombinant human HDAC6", "value": 352, "unit": "nM"}]}, {"smiles": "Fc1cc(-c2nnc(C(F)F)o2)ccc1Cn1nnc(-c2ccc3cnccc3c2)n1", "note": "[compound 427, 2-(difluoromethyl)-5-(3-fluoro-4-((5-(isoquinolin-6-yl)-2H-tetrazol-2-yl)methyl)phenyl)-1,3,4-oxadiazole]", "values": [{"measurement": "IC50", "setting": "recombinant human HDAC6", "value": 72, "unit": "nM"}]}, {"smiles": "C[C@@H]1CN(c2ccc(-c3nnn(Cc4ccc(-c5nnc(C(F)F)o5)cc4)n3)cn2)CCN1", "note": "[compound 159, (R)-2-(difluoromethyl)-5-(4-((5-(6-(3-methylpiperazin-1-yl)pyridin-3-yl)-2H-tetrazol-2-yl)methyl)phenyl)-1,3,4-oxadiazole]", "values": [{"measurement": "IC50", "setting": "recombinant human HDAC1", "value": "> 200000", "unit": "nM"}]}, {"smiles": "COc1ccc(-c2nnn(Cc3ccc(-c4nnc(C(F)F)o4)cc3)n2)cc1", "note": "[compound 204, 2-(difluoromethyl)-5-(4-((5-(4-methoxyphenyl)-2H-tetrazol-2-yl)methyl)phenyl)-1,3,4-oxadiazole]", "values": [{"measurement": "IC50", "setting": "recombinant human HDAC6", "value": 122, "unit": "nM"}]}, {"smiles": "Nc1ncnc2sc(-c3cn(Cc4ccc(-c5nnc(C(F)F)o5)c(F)c4)nn3)cc12", "note": "[compound 417, 6-[1-({4-[5-(difluoromethyl)-1,3,4-oxadiazol-2-yl]-3-fluorophenyl}methyl)-1H-1,2,3-triazol-4-yl]thieno[2,3-d]pyrimidin-4-amine]", "values": [{"measurement": "IC50", "setting": "recombinant human HDAC6", "value": 44, "unit": "nM"}]}, {"smiles": "Nc1ncc2cc(-c3nnn(Cc4ccc(-c5nnc(C(F)F)o5)cc4)n3)ccc2n1", "note": "[compound 278, 6-(2-(4-(5-(difluoromethyl)-1,3,4-oxadiazol-2-yl)benzyl)-2H-tetrazol-5-yl)quinazolin-2-amine]", "values": [{"measurement": "IC50", "setting": "recombinant human HDAC6", "value": 186, "unit": "nM"}]}, {"smiles": "Nc1cnc2ccc(-c3nnn(Cc4ccc(-c5nnc(C(F)F)o5)c(F)c4)n3)cc2c1", "note": "[compound 400, 6-[2-[[4-[5-(difluoromethyl)-1,3,4-oxadiazol-2-yl]-3-fluorophenyl]methyl]tetrazol-5-yl]quinolin-3-amine]", "values": [{"measurement": "IC50", "setting": "recombinant human HDAC6", "value": 32, "unit": "nM"}]}, {"smiles": "CNc1ccc2cc(-c3nnn(Cc4cc(F)c(-c5nnc(C(F)F)o5)cc4F)n3)ccc2n1", "note": "[compound 504, 6-(2-(4-(5-(difluoromethyl)-1,3,4-oxadiazol-2-yl)-2,5-difluorobenzyl)-2H-tetrazol-5-yl)-N-methylquinolin-2-amine]", "values": [{"measurement": "IC50", "setting": "recombinant human HDAC6", "value": 100, "unit": "nM"}]}, {"smiles": "Nc1ncc2cc(-c3nnn(Cc4ccc(-c5nnc(C(F)F)o5)cc4F)n3)ccc2n1", "note": "[compound 424, 6-(2-(4-(5-(difluoromethyl)-1,3,4-oxadiazol-2-yl)-2-fluorobenzyl)-2H-tetrazol-5-yl)quinazolin-2-amine]", "values": [{"measurement": "IC50", "setting": "recombinant human HDAC6", "value": 76, "unit": "nM"}]}]}
